# Where “and” joins values, the source holds several entries; their conditions need not be identical. Equal values may be shown once.
# How the values were obtained:
# [1] = test system: human embryonic stem cell line H9; assay: Cytokine array (RayBiotech) of cell lysates and conditioned media, Activin A +/- Wnt3a (Table VII); assay type: cell-based; design: Angiogenin / BDNF / BMP-4 / BMP-6 / CK beta 8-1 / Eotaxin-3 / Flt-3 Ligand / Fractalkine / GCP-2 / GDNF / GM-CSF / I-309 / IFN-gamma / IGFBP-1 / IGFBP-2 / IGFBP-4 / IL-10 / IL-13 / IL-15 / IL-1alpha / IL-1beta / IL-1ra / IL-3 / IL-5 / Leptin / MCP-1 / MIP-1-delta / NT-3 / RANTES / SCF / TGF-beta 1 / TNF-beta / Acrp30 / AgRP / AxI / bFGF: unit not given here
# Procedure: At passage 54, cells were differentiated in the presence of 100 ng/mlActivinA+/−10 ng/mlWnt3a for 2 days in 0.5% FBS DMEM/F12. […]
# Cell lysates were prepared from cells of each treatment group, with a mammalian cell lysis kit (Sigma-Aldrich,MO). Conditioned media from each treatment group was collected and concentrated. Cytokine array analysis was completed using Cytokine Array panels provided by RayBiotech, GA (http://www.raybiotech.com/). […] For each panel, positive and negative controls are also included.
# [2] = test system: SA002 P38 cells; assay: Differentiation of SA002 ES line on […] to definitive endoderm (real-time PCR, FACS); assay type: cell-based, human; settings: 20 ng/ml Wnt-3a with 100 ng/ml activin A
# Source text: Expression of CXCR4 is depicted in FIG. 45: a) AA treatment b) AA+Wnt-3a c) AA+GSK-3B inhibitor.
# [3] = test system: human embryonic stem cell line H9; assay: Cells from […] differentiated on MEFs: role of Wnt-3a (real-time PCR, FACS); assay type: cell-based
# Procedure: Cells from the human embryonic stem cell line H9 cultured on […]™ for at least five passages were seeded onto MEF feeders in ES media.
# At day 3 and 5, the cultures were analyzed by real time PCR for SOX-17, SOX-7, Alpha-fetal protein (AFP), CXCR4, Brychyury (Bry), gooscecoid (GSC), HNF-3 beta, GATA4, hTERT and Oct4. AFP and SOX-7 are regarded as visceral endoderm markers while GATA4, HNF-3beta and SOX-17 represent definite endoderm markers and GSC, Bry, and CXCR4 represent markers of primitive streak. hTERT and Oct-4 are markers for self renewal and pluripotency respectively. FACS analysis was also performed at day 3 and 5.
# [4] = Cell conditioned media, H9 day 5, samples 1,2
# [5] = Cell lysate, H9 day 5, samples 1,2
substance,measurement,setting,value
Wnt-3a,Acrp30,[1]; [4],"2,795.71 and 2,302.99"
same,AgRP,[1]; [4],651.26 and 482.21
same,Amphiregulin,[1]; [4],619.07 and 782.60
same,Angiogenin,[1]; [4],"57,442.48 and 54,969.04"
same,Angiopoietin-2,[1]; [4],"65,959.24 and 71,664.21"
same,AxI,[1]; [4],610.40 and 748.34
same,BDNF,[1]; [4],770.08 and 715.86
same,BLC,[1]; [4],337.12 and 249.80
same,BMP-6,[1]; [4],985.70 and 670.60
same,CK beta 8-1,[1]; [4],42.78 and 75.44
same,CNTF,[1]; [4],787.19 and 541.51
same,EGF,[1]; [4],"23,331.57 and 22,768.53"
same,Eotaxin-2,[1]; [4],"2,156.21 and 1,445.14"
same,Eotaxin-3,[1]; [4],"2,140.81 and 1,480.35"
same,FGF-6,[1]; [4],"3,283.94 and 2,519.78"
same,Flt-3 Ligand,[1]; [4],511.67 and 792.98
same,Fractalkine,[1]; [4],359.37 and 367.15
same,GCP-2,[1]; [4],451.78 and 362.12
same,GDNF,[1]; [4],443.22 and 509.66
same,GM-CSF,[1]; [4],"1,808.82 and 1,446.82"
same,I-309,[1]; [4],318.30 and 288.36
same,IFN-gamma,[1]; [4],"1,238.97 and 1,435.08"
same,IGF-I,[1]; [4],254.98 and 187.77
same,IGFBP-1,[1]; [4],227.60 and 155.91
same,IGFBP-2,[1]; [4],"42,215.53 and 43,934.33"
same,IGFBP-4,[1]; [4],"18,988.34 and 13,380.14"
same,IL-1alpha,[1]; [4],"3,999.26 and 3,545.79"
same,IL-1beta,[1]; [4],316.59 and 278.30
same,IL-1ra,[1]; [4],354.23 and 581.75
same,IL-2,[1]; [4],758.10 and 881.84
same,IL-3,[1]; [4],"11,345.78 and 12,174.73"
same,IL-4,[1]; [4],804.30 and 673.95
same,IL-5,[1]; [4],"2,120.27 and 1,713.38"
same,IL-6,[1]; [4],"9,774.82 and 9,991.93"
same,IL-10,[1]; [4],"1,625.71 and 1,129.96"
same,IL-13,[1]; [4],"2,522.42 and 1,807.27"
same,IL-15,[1]; [4],"2,495.04 and 1,981.62"
same,IL-16,[1]; [4],436.38 and 405.71
same,LIGHT,[1]; [4],"1,346.78 and 1,108.17"
same,Leptin,[1]; [4],"7,238.71 and 4,886.99"
same,M-CSF,[1]; [4],740.98 and 684.01
same,MCP-1,[1]; [4],"2,015.89 and 1,567.53"
same,MCP-2,[1]; [4],694.78 and 694.07
same,MCP-3,[1]; [4],701.62 and 583.42
same,MCP-4,[1]; [4],231.02 and 276.62
same,MIP-1-delta,[1]; [4],474.02 and 291.71
same,MIP-3-alpha,[1]; [4],208.78 and 184.41
same,NAP-2,[1]; [4],371.35 and 343.68
same,NT-3,[1]; [4],571.57 and 427.51
same,PARC,[1]; [4],474.02 and 363.80
same,PDGF-BB,[1]; [4],"2,635.37 and 2,005.09"
same,RANTES,[1]; [4],682.80 and 855.01
same,SCF,[1]; [4],"1,394.69 and 2,155.98"
same,SDF-1,[1]; [4],326.85 and 616.95
same,TGF-beta 1,[1]; [4],"1,827.65 and 1,849.18"
same,TGF-beta 3,[1]; [4],294.34 and 343.68
same,TNF-alpha,[1]; [4],"2,609.70 and 2,167.71"
same,TNF-beta,[1]; [4],"1,701.01 and 1,637.94"
same,bFGF,[1]; [4],"1,226.99 and 1,241.09"
same,Acrp30,[1]; [5],601.61 and 690.66
same,AgRP,[1]; [5],77.82 and 89.00
same,Angiogenin,[1]; [5],619.40 and 750.85
same,AxI,[1]; [5],88.59 and 139.03
same,BDNF,[1]; [5],763.51 and 951.45
same,BLC,[1]; [5],742.24 and 476.36
same,BMP-4,[1]; [5],348.44 and 304.48
same,BMP-6,[1]; [5],571.23 and 641.05
same,CK beta 8-1,[1]; [5],22.48 and 21.54
same,CNTF,[1]; [5],"1,382.51 and 1,060.82"
same,EGF,[1]; [5],742.24 and 984.39
same,Eotaxin,[1]; [5],301.87 and 253.80
same,Eotaxin-3,[1]; [5],934.12 and 847.56
same,Flt-3 Ligand,[1]; [5],857.45 and 795.19
same,Fractalkine,[1]; [5],792.02 and 456.51
same,GCP-2,[1]; [5],593.71 and 538.86
same,GDNF,[1]; [5],436.75 and 444.68
same,GM-CSF,[1]; [5],"1,343.17 and 1,161.75"
same,I-309,[1]; [5],708.52 and 743.25
same,IFN-gamma,[1]; [5],"1,202.67 and 1,037.60"
same,IGFBP-1,[1]; [5],59.41 and 85.73
same,IGFBP-2,[1]; [5],"2,671.90 and 2,414.72"
same,IGFBP-4,[1]; [5],"4,459.85 and 4,173.19"
same,IL-1alpha,[1]; [5],"1,612.93 and 1,421.89"
same,IL-1beta,[1]; [5],352.05 and 312.08
same,IL-1ra,[1]; [5],302.68 and 198.48
same,IL-3,[1]; [5],"2,119.94 and 1,497.48"
same,IL-4,[1]; [5],625.42 and 638.94
same,IL-5,[1]; [5],"1,245.23 and 1,167.24"
same,IL-10,[1]; [5],"1,222.75 and 1,096.30"
same,IL-13,[1]; [5],"1,486.89 and 1,407.96"
same,IL-15,[1]; [5],"1,677.16 and 1,601.79"
same,IL-16,[1]; [5],651.11 and 668.50
same,Leptin,[1]; [5],"1,234.39 and 1,091.65"
same,M-CSF,[1]; [5],852.63 and 867.83
same,MCP-1,[1]; [5],"1,022.03 and 1,076.03"
same,MCP-3,[1]; [5],"1,184.61 and 1,255.50"
same,MCP-4,[1]; [5],"1,380.51 and 1,606.86"
same,MDC,[1]; [5],269.36 and 280.41
same,MIG,[1]; [5],"1,113.16 and 1,137.26"
same,MIP-1-delta,[1]; [5],491.75 and 322.22
same,MIP-3-alpha,[1]; [5],"1,602.09 and 1,399.93"
same,NT-3,[1]; [5],316.73 and 275.76
same,PARC,[1]; [5],352.85 and 353.04
same,PDGF-BB,[1]; [5],517.84 and 597.56
same,RANTES,[1]; [5],724.98 and 637.25
same,SCF,[1]; [5],"1,152.50 and 1,021.13"
same,TARC,[1]; [5],372.93 and 343.33
same,TGF-beta 1,[1]; [5],"1,426.67 and 1,240.30"
same,TNF-alpha,[1]; [5],"2,851.74 and 1,285.91"
same,TNF-beta,[1]; [5],"1,049.33 and 1,026.62"
same,bFGF,[1]; [5],"11,722.95 and 21,398.52"
same,"Angiogenin, IGFBP-1 and EGF",[1]; cell conditioned media,Noticeable upregulation
same,"proteins including IGFBP-1, TGFbeta-1 and TGFbeta-3",[1]; cell lysates,upregulated
same,expression of DE markers in SA002 line,[2],required addition of Wnt-3A for robust expression
same,role in differentiation of hES cells cultured on MEFs to definitive endoderm,[3],does not appear to play a significant role
same,AFP expression,[3]; Wnt-3a added to 100 ng/ml activin A,increase in the expression of AFP that increases over time

# Source: patent US9096832B2, “Differentiation of human embryonic stem cells” (LifeScan, Inc., priority 2007, dated 2015)
